# What was measured:
# Format in all cases: in vivo
# [1] = tested on: Tomato; assay: Example 1 phytotoxicity, general injury (PHYGEN) on tomato; details: appl. A
# Source text: (§1) “Low Phytotoxicity” of pelargonic acid, as used herein means that the toxic effect on plants is absent or at such a level so as not to adversely impact the growth and/or yield of the plant under a given set of test conditions, e.g., at a given concentration of pelargonic acid. Phytotoxic effects may be measured in a number of different ways, for example, according to the principals set out in OEPP/EPPO Bulletin (2014) 44(3), 265-273 “PP 1/135 (4) Phytotoxicity assessment”. The phytotoxic effect on plants may be assessed visually as a function of the percentage of discoloration to the leaves and/or the appearance of necrosis. When the pelargonic acid compositions are applied to the foliage of the vegetable plants in accordance with the teachings herein, will typically result in a level of phytotoxicity of less than 20%, preferably less than 15%, more preferably less than 10% necrosis of the leaves in comparison to untreated plants. Preferred uses of the invention will typically result in phytotoxicity of 7% or less, whilst the most preferred uses will typically result in phytotoxicity of 5% or less. The above values are approximate as any purely visual assessment is likely to contain a degree of subjectivity.
# Trial conducted in 4 replicates on plots of 10 plants each. Application A was made at the occurrence of the insects.
# [2] = tested on: Tuta absoluta; assay: Example 2 tomato trial, Tuta absoluta (tomato leafminer) control; details: appl. AB
# Description: Tomato—Tuta absoluta (Tomato Leafminer)
# (§2) Trial conducted in 4 replicates on plots of 25 plants each. Application was made at the occurrence of the insects.
# Insects present at the time of application: at App A 0.3/plot, at App B in untreated: 34/plot
# Efficacy is assessed by checking on the leaves the % of damage caused by the insects.
# [3] = tested on: Tomato; assay: Example 2 phytotoxicity, necrosis/burn (PHYNEC) on tomato; design: key: % visual leaf necrosis/discoloration vs untreated plants; details: appl. AB
# Source text: as §1, §2
# [4] = tested on: Pea; assay: Example 5 phytotoxicity, chlorosis (PHYCHL) on pea; design: scale not given here; details: 585 g/ha (0.9 L/ha), appl. AB
# Description: The trial was conducted on peas, variety Batuta, 4 replicates per plot. A water volume of 200 L water/ha was used for each application. Two applications were made, Application A was made at first infestation and Application B was made 14d later. Each plot at least 12 m^2.
smiles,measurement,setting,value
"CCCCCCCCC(=O)O [PA, pelargonic acid]",Phytotoxicity - General Injury (PHYGEN),"[1]; 650 g/ha (1 L/ha), 0 DAA",0%
same,Phytotoxicity - General Injury (PHYGEN),"[1]; 650 g/ha (1 L/ha), 2 DAA",0%
same,Phytotoxicity - General Injury (PHYGEN),"[1]; 650 g/ha (1 L/ha), 8 DAA",0%
same,Phytotoxicity - General Injury (PHYGEN),"[1]; 650 g/ha (1 L/ha), 15 DAA",0%
same,Phytotoxicity - General Injury (PHYGEN),"[1]; 1300 g/ha (2 L/ha), 0 DAA",0%
same,Phytotoxicity - General Injury (PHYGEN),"[1]; 1300 g/ha (2 L/ha), 2 DAA",0%
same,Phytotoxicity - General Injury (PHYGEN),"[1]; 1300 g/ha (2 L/ha), 8 DAA",0%
same,Phytotoxicity - General Injury (PHYGEN),"[1]; 1300 g/ha (2 L/ha), 15 DAA",0%
same,Phytotoxicity - General Injury (PHYGEN),"[1]; 2600 g/ha (4 L/ha), 0 DAA",0%
same,Phytotoxicity - General Injury (PHYGEN),"[1]; 2600 g/ha (4 L/ha), 2 DAA",0%
same,Phytotoxicity - General Injury (PHYGEN),"[1]; 2600 g/ha (4 L/ha), 8 DAA",0%
same,Phytotoxicity - General Injury (PHYGEN),"[1]; 2600 g/ha (4 L/ha), 15 DAA",0%
same,# Damaged leaves,"[2]; 1300 g/ha (2 L/ha), 3 DAA",47 % UNCK
same,# Damaged leaves,"[2]; 1300 g/ha (2 L/ha), 3 DAB",31 % UNCK
same,# Damaged leaves,"[2]; 1300 g/ha (2 L/ha), 7 DAA",68 % UNCK
same,# Damaged leaves,"[2]; 1300 g/ha (2 L/ha), 7 DAB",32 % UNCK
same,# Damaged leaves,"[2]; 1300 g/ha (2 L/ha), 14 DAA",70 % UNCK
same,# Damaged leaves,"[2]; 1950 g/ha (3 L/ha), 3 DAA",51 % UNCK
same,# Damaged leaves,"[2]; 1950 g/ha (3 L/ha), 3 DAB",42 % UNCK
same,# Damaged leaves,"[2]; 1950 g/ha (3 L/ha), 7 DAA",69 % UNCK
same,# Damaged leaves,"[2]; 1950 g/ha (3 L/ha), 7 DAB",46 % UNCK
same,# Damaged leaves,"[2]; 1950 g/ha (3 L/ha), 14 DAA",72 % UNCK
same,# Damaged leaves,"[2]; 2600 g/ha (4 L/ha), 3 DAA",58 % UNCK
same,# Damaged leaves,"[2]; 2600 g/ha (4 L/ha), 3 DAB",47 % UNCK
same,# Damaged leaves,"[2]; 2600 g/ha (4 L/ha), 7 DAA",74 % UNCK
same,# Damaged leaves,"[2]; 2600 g/ha (4 L/ha), 7 DAB",42 % UNCK
same,# Damaged leaves,"[2]; 2600 g/ha (4 L/ha), 14 DAA",78 % UNCK
same,# Damaged leaves,"[2]; 5200 g/ha (8 L/ha), 3 DAA",59 % UNCK
same,# Damaged leaves,"[2]; 5200 g/ha (8 L/ha), 3 DAB",42 % UNCK
same,# Damaged leaves,"[2]; 5200 g/ha (8 L/ha), 7 DAA",75 % UNCK
same,# Damaged leaves,"[2]; 5200 g/ha (8 L/ha), 7 DAB",49 % UNCK
same,# Damaged leaves,"[2]; 5200 g/ha (8 L/ha), 14 DAA",75 % UNCK
same,Phytotoxicity - Necrosis/burn (PHYNEC),"[3]; 1300 g/ha (2 L/ha), 3 DAA",0
same,Phytotoxicity - Necrosis/burn (PHYNEC),"[3]; 1300 g/ha (2 L/ha), 7 DAA",0
same,Phytotoxicity - Necrosis/burn (PHYNEC),"[3]; 1300 g/ha (2 L/ha), 7 DAB",0
same,Phytotoxicity - Necrosis/burn (PHYNEC),"[3]; 1300 g/ha (2 L/ha), 14 DAA",0
same,Phytotoxicity - Necrosis/burn (PHYNEC),"[3]; 1950 g/ha (3 L/ha), 3 DAA",0
same,Phytotoxicity - Necrosis/burn (PHYNEC),"[3]; 1950 g/ha (3 L/ha), 7 DAA",0
same,Phytotoxicity - Necrosis/burn (PHYNEC),"[3]; 1950 g/ha (3 L/ha), 7 DAB",0
same,Phytotoxicity - Necrosis/burn (PHYNEC),"[3]; 1950 g/ha (3 L/ha), 14 DAA",0
same,Phytotoxicity - Necrosis/burn (PHYNEC),"[3]; 2600 g/ha (4 L/ha), 3 DAA",0
same,Phytotoxicity - Necrosis/burn (PHYNEC),"[3]; 2600 g/ha (4 L/ha), 7 DAA",0
same,Phytotoxicity - Necrosis/burn (PHYNEC),"[3]; 2600 g/ha (4 L/ha), 7 DAB",0
same,Phytotoxicity - Necrosis/burn (PHYNEC),"[3]; 2600 g/ha (4 L/ha), 14 DAA",0
same,Phytotoxicity - Necrosis/burn (PHYNEC),"[3]; 5200 g/ha (8 L/ha), 3 DAA",0
same,Phytotoxicity - Necrosis/burn (PHYNEC),"[3]; 5200 g/ha (8 L/ha), 7 DAA",0
same,Phytotoxicity - Necrosis/burn (PHYNEC),"[3]; 5200 g/ha (8 L/ha), 7 DAB",0
same,Phytotoxicity - Necrosis/burn (PHYNEC),"[3]; 5200 g/ha (8 L/ha), 14 DAA",0
same,Phytotoxicity - Chlorosis (PHYCHL),[4]; 3 DAA,0
same,Phytotoxicity - Chlorosis (PHYCHL),[4]; 3 DAB,0
same,Phytotoxicity - Chlorosis (PHYCHL),[4]; 7 DAA,0
same,Phytotoxicity - Chlorosis (PHYCHL),[4]; 7 DAB,0

# Reference: patent US20250143299A1, “METHODS AND COMPOSITIONS FOR CONTROLLING PESTS IN VEGETABLES” (Globachem NV, priority 2022, published 2025)
